According to PubChem BioAssay (NCI):
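Values below derive from 48-hour exposures of cells grown in 96-well plates, with endpoints linearly interpolated between the two concentrations bracketing the appropriate inhibition level. At the TGI there is no net growth.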

How the values were obtained:
Assay in all cases: inhibition of tumour cell growth, NCI panel, 48 h
[1] = tested on: 786-0 renal
[2] = tested on: A498 renal
[3] = tested on: A549 NSCLC
[4] = tested on: ACHN renal
[5] = tested on: BT-549 breast
[6] = tested on: CAKI-1 renal
[7] = tested on: CCRF-CEM leukemia
[8] = tested on: COLO 205 colon
[9] = tested on: DU-145 prostate
[10] = tested on: EKVX NSCLC
[11] = tested on: HCC-2998 colon
[12] = tested on: HCT-116 colon
[13] = tested on: HCT-15 colon
[14] = tested on: HL-60(TB) leukemia
[15] = tested on: HOP-62 NSCLC
[16] = tested on: HOP-92 NSCLC
[17] = tested on: HS 578T breast
[18] = tested on: HT29 colon
[19] = tested on: IGROV1 ovarian
[20] = tested on: K-562 leukemia
[21] = tested on: KM12 colon
[22] = tested on: LOX IMVI melanoma
[23] = tested on: M14 melanoma
[24] = tested on: MALME-3M melanoma
[25] = tested on: MCF7 breast
[26] = tested on: MDA-MB-231 breast
[27] = tested on: MDA-MB-435
[28] = tested on: MDA-N
[29] = tested on: MOLT-4 leukemia
[30] = tested on: NCI-H226 lung
[31] = tested on: NCI-H23 lung
[32] = tested on: NCI-H460 lung
[33] = tested on: NCI-H522 lung
[34] = tested on: NCI/ADR-RES ovarian
[35] = tested on: OVCAR-3 ovarian
[36] = tested on: OVCAR-4 ovarian
[37] = tested on: OVCAR-5 ovarian
[38] = tested on: OVCAR-8 ovarian
[39] = tested on: PC-3 prostate
[40] = tested on: RPMI-8226 leukemia
[41] = tested on: RXF 393 renal
[42] = tested on: SF-268 CNS
[43] = tested on: SF-295 CNS
[44] = tested on: SF-539 CNS
[45] = tested on: SK-MEL-2 melanoma
[46] = tested on: SK-MEL-28 melanoma
[47] = tested on: SK-MEL-5 melanoma
[48] = tested on: SK-OV-3 ovarian
[49] = tested on: SN12C renal
[50] = tested on: SNB-19 CNS
[51] = tested on: SNB-75 CNS
[52] = tested on: SR leukemia
[53] = tested on: SW-620 colon
[54] = tested on: T-47D breast
[55] = tested on: TK-10 renal
[56] = tested on: U251 CNS
[57] = tested on: UACC-257 melanoma
[58] = tested on: UACC-62 melanoma
[59] = tested on: UO-31 renal

Measured: TGI

N=[N+]=NC1C(O)C(CO)OC1n1cnc2c(N)ncnc21 (configuration not stated)
> 22.4 µM: [29]
7 µM: [52]
97.4 µM: [30]
> 76.2 µM: [44]
> 29.8 µM: [7]
> 83.5 µM: [22]
> 80 µM: [31]
52.6 µM: [4]
6.44 µM: [14]
> 100 µM: all other assays above

CC(=O)OCC1OC(n2c(-c3ccc(C)cc3)cc(-c3ccco3)c(C#N)c2=S)C(OC(C)=O)C(OC(C)=O)C1OC(C)=O (configuration not stated)
81.1 µM: [16]
36.1 µM: [44]
45.2 µM: [58]
78.4 µM: [26]
not listed: [1]
> 100 µM: all other assays above
